Where two headings read alike, the source gives them in different places.
Tests used:
[1] = system: ex vivo T. muris adults; settings: read-out: EC50 T. muris paralysis assay; cited from earlier work
[2] = system: T. trichiura; settings: cited from earlier work; for Cure rate, T. trichiura infection: single dose; for Cure rate against whipworm: single doses as used in MDA, no reference given
[3] = system: C. elegans N2; set-up: method as in PMID 29223747; settings: read-out: EC50 C. elegans growth assay; cited from earlier work
[4] = system: ex vivo T. muris adults; assay: T. muris ex vivo adult motility (paralysis) assay; set-up: species or system Trichuris muris; settings: for EC50: Trichuris muris; for Activity in hit confirmation and expansion motility screen: library material (DMSO solution), 100μM
Experimental: T. muris worms were cultured using severe combined immune deficiency (SCID) mice, at the Biological Services Facility at the University of Manchester. Male and female mice were infected with 200 infective embryonated T. muris eggs via oral gavage. Thirty-five days later, the mice were sacrificed. Adult T. muris were obtained from the intestine as previously described. Worms were maintained in Roswell Park Memorial Institute (RPMI) 1640 media supplemented with penicillin (500 U/mL) and streptomycin (500 μg/mL) at approximately 37°C and studied on the same day.
Individual adult worms were added to wells containing 75 μL of RPMI-1640 medium, penicillin (500 U/mL), streptomycin (500 μg/mL) plus 1% v/v final concentration of dimethylsulfoxide (DMSO) or compound dissolved in DMSO. Plates were incubated at 37°C, 5% CO2. Motility was determined after 24 hours.
An automated system was used to quantify worm movement. An earlier version of this system has been previously described. Two hundred frame movies of the whole plate were recorded at 10 frames per second and then motility determined by an algorithm based on thresholding pixel variance over time. For the hit confirmation and expansion assays, library material was used at a final concentration of 100μM. Dose-response curves were calculated with the four factor log-logistic model using the R package drc or using GraphPad Prism.

[5] = system: C. elegans N2; assay: C. elegans growth assay; set-up: species or system Caenorhabditis elegans; settings: synchronised L1, 5 days at 20°C, EC50 estimate ± standard error
Experimental: A mixed-stage C. elegans N2 population was obtained by liquid culture (20°C) according to standard methods. It was then bleached to obtain an egg population with 1.5 mL 4M NaOH, 2.4 mL NaOCl, 2.1 mL water, washed three times, and allowed to hatch in 50 mL S-basal buffer at 20°C overnight to obtain a synchronised L1 population. For the growth assay, 49 μL of S-complete buffer and 1 μL of DMSO or DMSO plus compound were added to each well of 96-well plates. 50 μL of a worm suspension (approximately 20 synchronised L1 worms, 1% w/v E. coli HB101 in S-complete buffer) were then added to each well. Plates were incubated at 20°C before imaging 5 days later. Worm movement was stimulated by inserting and removing a 96-well PCR plate into/from the wells of the assay plate, and then whole plate 200 frame movies were recorded at 30 frames per second. Growth was quantified as a correlate of movement using the same automated system described earlier, which estimates movement for each well by categorising pixels as imaging movement if their variance is greater the mean plus one standard deviation of the variances of all the pixels on the plate.

[6] = system: CMT-93 rectal epithelial cells; assay: WST-8 cytotoxicity assay; type: cell-based; settings: Mus musculus, CMT93; CMT-93 cells, 72 hours, max 100 μM, n = 8, 95% confidence interval in parentheses
Experimental: (§1) The mouse rectal epithelial cell line CMT-93 (LGC Promochem, Teddington, United Kingdom) was used for these studies. The WST-8 and neutral red cytotoxicity assays were performed as described. Briefly, cells were cultured with test compounds, chlorpromazine positive control or DMSO alone (final compound concentrations of 0 to 100 μM) for 72 hours. The WST-8 assay was then carried out using the Cell Counting Kit– 8 (Sigma Aldrich # 96992) with an incubation time of 2 hours. This time was chosen according to the manufacturer’s instructions and was such that the absorbance of the WST-8 formazan dye was within the linear range of the microplate reader. Following this assay, the medium was exchanged, and the ability of the cells to take up the dye neutral red (concentration 33 μg/mL, incubation time 2 hours) was determined using a microplate reader (absorbance at 540 nm). Results were analysed using GraphPad Prism and fitted using a log-logistic model.

[7] = system: CMT-93 rectal epithelial cells; assay: Neutral red cytotoxicity assay; type: cell-based; settings: Mus musculus, CMT93; CMT-93 cells, 72 hours, max 100 μM, n = 8, 95% confidence interval in parentheses
Experimental: as §1

[8] = system: unembryonated T. muris eggs; assay: Embryonation assay; set-up: species or system Trichuris muris; settings: for Percentage of unembryonated eggs compared to the DMSO control: duration of embryonation (56–60 days)
Experimental: One hundred unembryonated eggs were treated with water, 1% v/v DMSO in water or test compounds at a final concentration of 100 μM (unless stated) with 1% v/v DMSO, in the dark at 26°C, either for 56 days or for shorter periods as described. Images were collected on an Olympus BX63 upright microscope using a 60x / 1.42 PlanApo N (Oil) objective and captured and white-balanced using an DP80 camera (Olympus) in monochrome mode through CellSens Dimension v1.16 (Olympus). Images were then processed and analysed using the image analysis platform Fiji.

[9] = system: embryonated T. muris eggs; assay: In vitro hatching of compound-soaked embryonated eggs in E. coli culture; set-up: species or system Trichuris muris; settings: eggs soaked 14 days at 100 μM, then 24 hours in E. coli culture at 37°C
Experimental: (§2) 100 infective embryonated eggs were incubated in deionised water with 1% v/v DMSO or test compounds at a final concentration of 100 μM in 1% v/v DMSO for 14 days at room temperature in the dark. Eggs were then washed and resuspended in deionised water. For in vitro hatching assays 100 eggs were added to 1 mL of E. coli bacterial culture grown in LB broth overnight at 37°C shaking at 200 rpm. Egg-bacterial cultures were incubated for 24 hours at 37°C, 5% CO2 and hatching determined following blinding by visual examination under a dissecting microscope. For in vivo hatching assays, 40 eggs were counted under a dissecting microscope and given to a SCID mouse in 200 μL water. At day 15 post-infection mice were culled and the number of L2 larvae present in the caecae and colon enumerated in a blinded manner under a dissecting microscope.

[10] = system: embryonated T. muris eggs; assay: In vivo hatching and infection establishment of treated eggs in SCID mice; set-up: species or system Trichuris muris in SCID mice; settings: eggs soaked 14 days in 100 μM; SCID mice given 40 eggs; L2 larvae counted day 15 post infection; batch normalised to DMSO
Experimental: as §2
The experiment was conducted in two ‘experimental batches’. For batch one there were 5 mice in each of the DMSO and OX02926 groups. For batch two there were 9 mice in each of the DMSO and OX02926 groups. The raw data (number of worms that established infection in each mouse) are shown separated by batch and treatment in the S1 Fig.
To analyse the data we used a two-way ANOVA (worm number ~ treatment * batch). […] There was no significant interaction between treatment and batch [F(1,24) = 0.296, P = 0.59153]. […]

[11] = set-up: method as in PMID 25370471, PMID 26787751; settings: solid tumors; cited from earlier work
[12] = shown for comparison in Table 1, read-out: Adult Trichuris paralysis assay EC50

Compound | EC50 [1] [µM] | EC50 [4, 12] [µM] | Activity in hit confirmation and expansion motility screen [4] | EC50 ([5]; Caenorhabditis elegans, 120 h) [µM] | EC50 [6] [µM] | EC50 [7] [µM] | further results
CCCSc1ccc2nc(NC(=O)OC)[nH]c2c1 [Albendazole] | > 800 | – | – | – | – | – | Cure rate, T. trichiura infection [2]: 28%; Cure rate against whipworm [2]: less than 40%
c1ccc([C@H]2CN3CCSC3=N2)cc1 [Levamisole] | 8 ± 3 | – | – | – | – | – | EC50 [3]: 5 ± 1 µM
COC(=O)Nc1nc2ccc(C(=O)c3ccccc3)cc2[nH]1 [Mebendazole] | > 600 | – | – | – | – | – | EC50 [3]: 1.1 ± 0.2 µM; Cure rate, T. trichiura infection [2]: 36%; Cure rate against whipworm [2]: less than 40%
CNc1nc(NCCOc2ccccc2)c2sccc2n1 [OX02925, N^2-Methyl-N^4-(2-phenoxyethyl)thieno[3,2-d]pyrimidine-2,4-diamine] | – | 47 | active | 82 ± 9 | 75 | 29 | Percentage of unembryonated eggs compared to the DMSO control ([8]; 100 μM, 26°C): significant increase
COCCNc1nc(NCCOc2ccccc2Cl)c2sccc2n1 [OX02926, N^4-(2-(2-Chlorophenoxy)ethyl)-N^2-(2-methoxyethyl)thieno[3,2-d]pyrimidine-2,4-diamine] | – | 27 | confirmed this activity | 82 ± 37 | 43 | 21 | EC50 ([4]; equivalent of 27μM, read-out: EC50 adult whipworm motility assay, mass equivalent): 10.2 µg/mL; EC50 [5]: 87 ± 37 µM; In vitro hatching of treated embryonated eggs compared to DMSO control [9]: significant decrease; Reduction of the burden of worms in vivo [10]: ~40%; melting point: 69 to 97 °C
Cc1ccc(CN2C(=O)COCc3cc(-c4ccncc4)ccc32)cc1 [OX02983] | 50 ± 13 | – | – | – | – | – | –
COc1ccccc1CNc1nc(NCCOc2ccccc2Cl)c2sccc2n1 [OX03143, N^4-(2-(2-chlorophenoxy)ethyl)-N^2-(2-methoxybenzyl)thieno[3,2-d]pyrimidine-2,4-diamine] | – | > 80 | active | 7 ± 1 | 15 | 5 | –
CNc1nc(NCCOc2ccccc2Cl)c2sccc2n1 [OX03147, N^4-(2-(2-chlorophenoxy)ethyl)-N^2-methylthieno[3,2-d]pyrimidine-2,4-diamine] | – | 44 | active | 11 ± 2 | 37 | 21 | Larval length after shortened exposure ([8]; 100 μM, 26°C, 2–4 week and 4–6 week groups): not affected; Percentage of unembryonated eggs compared to the DMSO control ([8]; 100 μM, 26°C): significant increase; Larval length after shortened exposure ([8]; 100 μM, 26°C, soaking weeks 0–3, P = 0.0076 vs DMSO): clear larval stunting; Proportion of unembryonated eggs after shortened exposure ([8]; 100 μM, 26°C, weeks 0–2, 0–3, 2–4 or 4–6 of embryonation): no increase; Morphology of L1 larvae within the egg after shortened exposure ([8]; 100 μM, 26°C, weeks 0–3, 2–4 or 4–6): clear morphological alterations; Drug dose at which increased number of unembryonated eggs was detected ([8]; concentration response, both 26°C and room temperature, 56 days): 100 µM; Effect on egg morphology / larval length at low concentration ([8]; concentrations as low as 1 μM, 26°C, 56 days): significant larval stunting
CS(=O)(=O)N1CCN(Cc2cc3nc(-c4cccc5[nH]ncc45)nc(N4CCOCC4)c3s2)CC1 [Pictilisib, pictilisib] | – | – | – | – | – | – | Tolerability in Phase I trials [11]: tolerated
Cc1c(CN2CCN(C(=O)[C@H](C)O)CC2)sc2c(N3CCOCC3)nc(-c3cnc(N)nc3)nc12 [apitolisib] | – | – | – | – | – | – | Tolerability in Phase I trials [11]: tolerated
